{"source": "ChEMBL document CHEMBL1201862", "about": "“PubChem BioAssay data set” (2004)", "key": {"[1]": {"test": "toxicity toward HepG2 liver cells – cell-based, plate reader, cherry-pick, antagonist series, cytotoxicity control, dose response (AID 743416)", "type": "functional"}, "[2]": {"test": "blockers of bursicon-stimulated LGR2 cAMP reporter – cell-based, HEK293, CRE-luciferase reporter, cherry pick, set 2, dose response (AID 743343);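 further: transfected cells were stimulated with diluted bursicon conditioned medium after compound addition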", "type": "functional"}, "[3]": {"target": "T1, Polyadenylate-binding protein 1 (Homo sapiens, UniProt P11940)", "T1 sequence (P11940 whole entry, the tested form may be a part)": "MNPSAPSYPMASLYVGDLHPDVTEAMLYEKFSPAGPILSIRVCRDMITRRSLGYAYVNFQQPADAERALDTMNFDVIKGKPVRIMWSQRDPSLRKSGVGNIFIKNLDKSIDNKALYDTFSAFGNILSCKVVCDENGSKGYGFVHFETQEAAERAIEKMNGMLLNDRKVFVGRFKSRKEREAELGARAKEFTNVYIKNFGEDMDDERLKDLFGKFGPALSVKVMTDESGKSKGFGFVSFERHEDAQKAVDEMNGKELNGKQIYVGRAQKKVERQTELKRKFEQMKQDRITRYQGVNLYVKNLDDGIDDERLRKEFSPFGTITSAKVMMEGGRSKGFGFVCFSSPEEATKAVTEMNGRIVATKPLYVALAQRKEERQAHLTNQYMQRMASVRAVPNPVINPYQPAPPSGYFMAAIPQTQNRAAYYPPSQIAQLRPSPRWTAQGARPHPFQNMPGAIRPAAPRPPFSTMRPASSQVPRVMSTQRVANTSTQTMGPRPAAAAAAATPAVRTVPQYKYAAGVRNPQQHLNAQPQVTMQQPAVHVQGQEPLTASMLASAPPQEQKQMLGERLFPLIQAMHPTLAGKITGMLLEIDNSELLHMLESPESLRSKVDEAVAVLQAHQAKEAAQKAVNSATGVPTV", "test": "MLLE domain peptide-binding blockers, IC50 – biochemical, fluorescence polarization, FITC-PAM2 peptide, dose response (AID 602259)", "type": "functional", "conditions": "read-out: IC50_Mean"}, "[4]": {"test": "blockade of melanocortin 4 receptor signaling – cell-based, plate reader, cherry pick, counter-screen for LGR2 antagonist project, dose response (AID 743444);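 further: transfected HEK 293 cells stimulated with alpha-MSH peptide; potency of inhibitors of the alpha-MSH evoked signal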", "type": "functional"}, "HEK293": {"tested_on": "HEK293", "test": "EBV LMP1 TES2 canonical NF-kB signalling blockers – cell-based, HEK293, luciferase, cherry-pick, dose response (AID 588343)", "type": "functional", "conditions": "Homo sapiens"}, "[5]": {"target": "T1, Polyadenylate-binding protein 1", "test": "MLLE binding blockers, Cy5 peptide tracer – biochemical, fluorescence polarization, Cy5-PAM2 peptide, secondary, miRNA deadenylation inhibitor project, dose response (AID 602260)", "type": "functional", "conditions": "read-out: IC50_Mean"}, "[6]": {"test": "NIH-3T3 fibroblast cytotoxicity, dose response, cytotoxicity control, cell-based, fluorescence, Alamar Blue, secondary assay (AID 2327);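 further: NIH-3T3 mouse fibroblasts cultured with fluconazole at 8 µg/mL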", "type": "functional"}, "[7]": {"target": "ATP-dependent molecular chaperone HSP82 (Candida albicans (strain WO-1) (Yeast), UniProt C4YTQ8)", "sequence (C4YTQ8 whole entry)": "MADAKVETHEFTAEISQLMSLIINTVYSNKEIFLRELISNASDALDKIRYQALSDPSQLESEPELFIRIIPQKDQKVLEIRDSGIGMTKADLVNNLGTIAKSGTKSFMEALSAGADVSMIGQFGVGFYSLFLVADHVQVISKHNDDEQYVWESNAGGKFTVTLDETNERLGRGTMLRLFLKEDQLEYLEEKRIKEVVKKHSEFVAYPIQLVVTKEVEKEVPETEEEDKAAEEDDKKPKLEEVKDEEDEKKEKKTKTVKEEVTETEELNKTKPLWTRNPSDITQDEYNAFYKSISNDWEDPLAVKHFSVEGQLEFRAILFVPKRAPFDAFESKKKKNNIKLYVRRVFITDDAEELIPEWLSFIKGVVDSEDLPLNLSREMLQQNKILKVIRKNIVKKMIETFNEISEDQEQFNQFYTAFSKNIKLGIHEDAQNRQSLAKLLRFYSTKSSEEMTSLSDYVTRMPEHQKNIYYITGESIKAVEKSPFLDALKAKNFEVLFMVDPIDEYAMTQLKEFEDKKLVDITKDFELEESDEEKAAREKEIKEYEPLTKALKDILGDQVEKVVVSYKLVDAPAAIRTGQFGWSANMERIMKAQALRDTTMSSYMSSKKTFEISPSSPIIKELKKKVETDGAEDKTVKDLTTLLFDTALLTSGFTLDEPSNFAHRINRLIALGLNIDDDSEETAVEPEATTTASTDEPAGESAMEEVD", "test": "steroid-induced GRE reporter decrease in yeast – S. cerevisiae, luminescence, Hsp90 inhibitor project, dose response (AID 2400);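 further: beta-galactosidase luminescence from glucocorticoid response element reporter as proxy for Hsp90 function; inhibitor potency where signal loss means Hsp90 inhibition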", "type": "functional, cell-based"}, "Streptococcus": {"tested_on": "Streptococcus", "test": "GAS UMAA2166 growth inhibition – luminescence, BacTiterGlo, counter-screen for streptokinase expression inhibitor project, dose response (AID 1915);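 further: potency for reduction of bacterial viability or growth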", "type": "functional, organism-based"}, "Melanocortin receptor 4": {"target": "Melanocortin receptor 4 (Homo sapiens, UniProt P32245)", "sequence (P32245 whole entry)": "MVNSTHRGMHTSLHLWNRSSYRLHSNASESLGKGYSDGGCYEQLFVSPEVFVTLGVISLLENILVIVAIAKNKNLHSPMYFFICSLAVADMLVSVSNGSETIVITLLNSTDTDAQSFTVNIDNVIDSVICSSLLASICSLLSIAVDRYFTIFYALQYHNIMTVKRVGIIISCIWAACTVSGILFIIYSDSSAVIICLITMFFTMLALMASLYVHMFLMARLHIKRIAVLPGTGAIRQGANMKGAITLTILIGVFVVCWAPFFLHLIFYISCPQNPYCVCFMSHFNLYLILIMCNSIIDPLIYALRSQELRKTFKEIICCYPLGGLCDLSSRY", "type": "functional, cell-based"}, "[8]": {"test": "fluconazole-exposed Candida albicans growth modulators – fluorescence, retest, confirmation (AID 2467)", "type": "functional, cell-based"}, "[9]": {"tested_on": "Streptococcus sp. 'group A'", "test": "Streptococcus pyogenes SK(-)GAS viability under kanamycin – luminescence, BacTiterGlo, confirmation, counter-screen for streptokinase expression inhibitor project, dose response (AID 1900)", "type": "functional, organism-based"}, "[10]": {"test": "microbe, parasite or virus in culture", "type": "functional", "conditions": "Mycobacterium tuberculosis"}, "[11]": {"test": "Luminescence Cell-Based Dose Retest to Confirm Inhibitors of Cancer Stem Cells. [Related pubchem assays (depositor defined):AID2717, AID2721]", "type": "functional", "conditions": "Homo sapiens"}, "Streptokinase A": {"target": "T2, Streptokinase A (Streptococcus pyogenes serotype M1, UniProt P10520)", "T2 sequence (P10520 whole entry)": "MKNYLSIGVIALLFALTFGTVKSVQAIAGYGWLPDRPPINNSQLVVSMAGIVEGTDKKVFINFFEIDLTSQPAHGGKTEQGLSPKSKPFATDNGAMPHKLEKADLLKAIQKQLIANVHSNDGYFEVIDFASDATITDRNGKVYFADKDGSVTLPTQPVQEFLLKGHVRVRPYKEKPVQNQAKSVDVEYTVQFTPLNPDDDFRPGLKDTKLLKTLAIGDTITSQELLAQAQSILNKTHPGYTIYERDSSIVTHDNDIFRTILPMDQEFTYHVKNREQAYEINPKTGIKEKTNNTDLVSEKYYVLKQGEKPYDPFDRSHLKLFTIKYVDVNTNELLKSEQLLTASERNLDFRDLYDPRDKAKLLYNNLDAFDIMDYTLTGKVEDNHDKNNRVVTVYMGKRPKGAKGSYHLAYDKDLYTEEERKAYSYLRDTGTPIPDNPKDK", "test": "viability-normalized secreted streptokinase activity reduction – plasminogen activation absorbance, OD405, dose response (AID 1914);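 further: secreted streptokinase activity via plasminogen activation per viability signal from cell pellet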", "type": "functional, Streptococcus pyogenes M1 GAS"}, "[12]": {"target": "T3, Serine/threonine-protein phosphatase (Candida dubliniensis (strain CD36 / CBS 7987 / NCPF 3949 / NRRLY-17841) (Yeast), UniProt B9W6M3)", "T3 sequence (B9W6M3 whole entry)": "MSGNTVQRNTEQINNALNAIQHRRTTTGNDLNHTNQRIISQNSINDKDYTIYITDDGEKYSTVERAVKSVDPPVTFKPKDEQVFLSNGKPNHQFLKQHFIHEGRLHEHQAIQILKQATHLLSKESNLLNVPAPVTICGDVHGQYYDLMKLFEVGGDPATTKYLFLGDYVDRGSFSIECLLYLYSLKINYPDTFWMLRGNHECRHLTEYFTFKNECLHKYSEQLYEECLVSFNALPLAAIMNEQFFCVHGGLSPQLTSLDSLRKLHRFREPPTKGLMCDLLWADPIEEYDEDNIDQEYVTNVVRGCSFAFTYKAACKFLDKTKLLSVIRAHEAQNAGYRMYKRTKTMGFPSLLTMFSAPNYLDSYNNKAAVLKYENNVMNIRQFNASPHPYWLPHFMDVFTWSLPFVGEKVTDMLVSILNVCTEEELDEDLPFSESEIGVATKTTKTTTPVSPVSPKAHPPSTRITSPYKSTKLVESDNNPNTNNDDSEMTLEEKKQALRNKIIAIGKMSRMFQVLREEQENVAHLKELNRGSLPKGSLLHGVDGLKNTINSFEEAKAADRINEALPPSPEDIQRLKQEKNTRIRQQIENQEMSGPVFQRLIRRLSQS", "test": "blockers of CaCl2-induced CDRE-lacZ signaling – S. cerevisiae, luminescence, secondary, dose response (AID 2388);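 further: yeast reporter cells carrying a calcineurin-responsive lacZ construct stimulated with calcium chloride; luminescent beta-galactosidase reporter signal in whole cells rather than isolated phosphatase activity; potency for inhibition where a drop in reporter signal means calcineurin blockade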", "type": "functional, cell-based"}, "Protein skinhead-1": {"target": "T4, Protein skinhead-1 (Caenorhabditis elegans, UniProt P34707)", "T4 sequence (P34707 whole entry)": "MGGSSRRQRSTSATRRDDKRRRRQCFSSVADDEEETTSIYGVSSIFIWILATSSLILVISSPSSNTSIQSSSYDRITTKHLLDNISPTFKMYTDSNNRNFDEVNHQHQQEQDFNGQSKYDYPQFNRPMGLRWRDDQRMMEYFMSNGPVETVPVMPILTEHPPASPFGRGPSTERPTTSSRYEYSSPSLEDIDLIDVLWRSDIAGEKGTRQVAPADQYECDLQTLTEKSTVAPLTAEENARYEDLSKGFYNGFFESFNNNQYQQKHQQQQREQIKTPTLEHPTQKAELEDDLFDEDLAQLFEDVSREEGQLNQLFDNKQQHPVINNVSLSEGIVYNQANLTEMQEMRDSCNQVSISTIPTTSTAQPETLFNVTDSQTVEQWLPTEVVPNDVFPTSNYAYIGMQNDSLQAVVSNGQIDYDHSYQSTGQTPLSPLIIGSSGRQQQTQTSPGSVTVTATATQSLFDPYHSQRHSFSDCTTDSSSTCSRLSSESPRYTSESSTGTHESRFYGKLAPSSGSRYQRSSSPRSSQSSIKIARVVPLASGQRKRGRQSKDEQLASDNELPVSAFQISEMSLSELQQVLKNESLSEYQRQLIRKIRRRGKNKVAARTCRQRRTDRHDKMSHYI", "type": "functional"}, "Protein Wnt-3a": {"target": "Protein Wnt-3a (Mus musculus, UniProt P27467)", "sequence (P27467 whole entry)": "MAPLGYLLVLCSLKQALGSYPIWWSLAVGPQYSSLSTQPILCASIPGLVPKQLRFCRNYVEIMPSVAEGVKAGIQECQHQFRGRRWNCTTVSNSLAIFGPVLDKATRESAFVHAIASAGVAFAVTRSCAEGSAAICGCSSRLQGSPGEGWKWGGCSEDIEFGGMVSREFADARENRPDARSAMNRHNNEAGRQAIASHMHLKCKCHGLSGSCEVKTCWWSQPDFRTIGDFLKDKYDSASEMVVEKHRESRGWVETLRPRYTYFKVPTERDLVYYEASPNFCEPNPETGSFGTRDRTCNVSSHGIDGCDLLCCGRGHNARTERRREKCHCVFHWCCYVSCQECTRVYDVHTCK", "test": "antagonism of Wnt3a pathway luciferase reporter – Wnt-LIGHT cells, luminescence, selectivity assay for Gli-SUFU antagonist project, dose response (AID 651570);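 further: Wnt-LIGHT reporter cells stimulated with conditioned medium from Wnt3a-producing cells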", "type": "functional", "conditions": "read-out: IC50_Mean"}, "Vero": {"tested_on": "Vero", "test": "viability of Vero cells under compound – cytotoxicity control for flavivirus capping enzyme inhibitors (AID 588742)", "type": "functional", "conditions": "Chlorocebus sabaeus"}, "Prothrombin": {"target": "Prothrombin (Bos taurus, UniProt P00735)", "test": "thrombin protease inhibitors – biochemical, fluorescence polarization, uHTS hits, dose response (AID 602369)", "type": "functional"}, "[13]": {"target": "72 kDa type IV collagenase (Homo sapiens, UniProt P08253)", "sequence (P08253 whole entry)": "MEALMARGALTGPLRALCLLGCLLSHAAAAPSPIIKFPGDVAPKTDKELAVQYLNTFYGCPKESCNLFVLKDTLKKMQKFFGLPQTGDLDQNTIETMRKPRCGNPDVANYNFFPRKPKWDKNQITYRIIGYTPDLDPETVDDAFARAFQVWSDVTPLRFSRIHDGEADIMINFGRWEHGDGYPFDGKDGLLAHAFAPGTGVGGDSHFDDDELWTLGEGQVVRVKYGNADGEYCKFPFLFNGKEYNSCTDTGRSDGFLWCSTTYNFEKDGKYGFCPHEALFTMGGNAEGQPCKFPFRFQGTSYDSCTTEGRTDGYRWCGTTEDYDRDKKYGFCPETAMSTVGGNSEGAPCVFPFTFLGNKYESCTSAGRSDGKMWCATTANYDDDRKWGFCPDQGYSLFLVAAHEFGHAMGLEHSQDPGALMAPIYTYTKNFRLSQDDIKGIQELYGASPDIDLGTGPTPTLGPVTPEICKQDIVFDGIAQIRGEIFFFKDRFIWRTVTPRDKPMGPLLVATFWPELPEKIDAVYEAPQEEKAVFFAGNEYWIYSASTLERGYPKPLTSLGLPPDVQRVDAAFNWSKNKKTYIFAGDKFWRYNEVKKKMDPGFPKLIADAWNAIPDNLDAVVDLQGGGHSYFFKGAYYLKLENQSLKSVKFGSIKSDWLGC", "test": "Dose Response validation of uHTS RPN11 inhibitor hits using a MMP-2 Fluorescence assay.", "type": "functional"}, "[14]": {"target": "26S proteasome non-ATPase regulatory subunit 14 (Homo sapiens, UniProt O00487)", "sequence (O00487 whole entry)": "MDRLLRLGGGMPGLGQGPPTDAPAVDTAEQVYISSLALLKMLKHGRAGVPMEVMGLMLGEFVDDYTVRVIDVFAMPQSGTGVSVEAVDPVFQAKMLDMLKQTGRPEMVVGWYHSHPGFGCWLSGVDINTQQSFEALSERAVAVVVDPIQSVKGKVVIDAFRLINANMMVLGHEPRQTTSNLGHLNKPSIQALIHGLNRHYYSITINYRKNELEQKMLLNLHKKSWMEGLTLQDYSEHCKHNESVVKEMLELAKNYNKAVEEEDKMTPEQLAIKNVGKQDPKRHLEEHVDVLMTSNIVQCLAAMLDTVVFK", "test": "inhibition of proteasome subunit RPN11 – biochemical, fluorescence polarization, uHTS hits, confirmation (AID 602368)", "type": "functional"}, "[15]": {"target": "T5, Endoribonuclease toxin MazF (Escherichia coli K-12, UniProt P0AE70)", "T5 sequence (P0AE70 whole entry)": "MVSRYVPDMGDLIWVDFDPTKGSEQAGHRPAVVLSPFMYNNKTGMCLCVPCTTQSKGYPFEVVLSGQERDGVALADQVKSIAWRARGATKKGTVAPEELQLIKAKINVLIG", "test": "activation of MazEF endoribonuclease cleavage – biochemical, fluorescence, single-stranded RNA substrate, uHTS hits, dose response (AID 588481)", "type": "functional"}, "[16]": {"target": "T5, Endoribonuclease toxin MazF", "test": "substrate-only fluorescence increase artefacts – biochemical, single-stranded RNase substrate, counter-screen for MazEF activator project, dose response (AID 588502)", "type": "functional"}}, "note": "Calls of active or inactive are those of the source."}
{"smiles": "O=C(CN1C(=O)c2ccccc2S1(=O)=O)Nc1ncc(Cl)cc1Cl", "values": [{"measurement": "AC50", "setting": "[1]", "value": "> 52 µM (inactive)"}, {"measurement": "AC50", "setting": "[2]", "value": "8.67 µM (active)"}, {"measurement": "IC50", "setting": "[3]", "value": "27.3 µM (inactive)"}, {"measurement": "AC50", "setting": "[4]", "value": "9.06 µM (active)"}, {"measurement": "AC50", "setting": "HEK293", "value": "3.85 µM (active)"}, {"measurement": "IC50", "setting": "[5]", "value": "> 66 µM (inactive)"}]}
{"smiles": "O=C(Nc1nc2ccc(SC(F)F)cc2s1)c1ccc(NS(=O)(=O)c2ccc(F)c(F)c2)cc1", "values": [{"measurement": "EC50", "setting": "[6]", "value": "92.6 µM (active)"}, {"measurement": "EC50", "setting": "[7]", "value": "> 150 µM (inactive)"}, {"measurement": "EC50", "setting": "Streptococcus", "value": "2.79 µM (active)"}, {"measurement": "EC50", "setting": "Melanocortin receptor 4", "value": "> 89.2 µM (inactive)"}, {"measurement": "EC50", "setting": "[8]", "value": "2.18 µM (active)"}, {"measurement": "EC50", "setting": "[9]", "value": "2.68 µM (active)"}, {"measurement": "CC50", "setting": "[10]", "value": "20.1 µM (active)"}, {"measurement": "AC50", "setting": "[11]", "value": "2.45 µM (active)"}, {"measurement": "EC50", "setting": "Streptokinase A", "value": "> 50 µM (not active)"}, {"measurement": "EC50", "setting": "[12]", "value": "> 180 µM (inactive)"}]}
{"smiles": "CC(=O)Nc1cccc(OCC(=O)/C=C2\\N(C)c3ccccc3C2(C)C)c1", "values": [{"measurement": "IC50", "setting": "Protein skinhead-1", "value": "> 100 µM (inactive)"}, {"measurement": "IC50", "setting": "Protein Wnt-3a", "value": "50 µM (inactive)"}]}
{"smiles": "CCn1c(=O)c(C(=O)CN2CCc3ccccc32)c(N)n(Cc2ccccc2)c1=O", "values": [{"measurement": "CC50", "setting": "Vero", "value": "> 40 µM (active)"}]}
{"smiles": "Cc1ccc(NC2=NC(=O)/C(=C/c3cccs3)S2)cc1C", "values": [{"measurement": "IC50", "setting": "Prothrombin", "value": "37.8 µM (active)"}, {"measurement": "IC50", "setting": "[13]", "value": "> 100 µM (inactive)"}, {"measurement": "IC50", "setting": "[14]", "value": "25.9 µM (active)"}]}
{"smiles": "COc1cccc(-c2cc(C(=O)N3CCc4ccccc4C3)[nH]n2)c1", "values": [{"measurement": "EC50", "setting": "[15]", "value": "> 99 µM (inactive)"}, {"measurement": "EC50", "setting": "[16]", "value": "> 99 µM (inactive)"}]}
